Structures are written as SMILES. A value given as a limit tells only on which side of the number the result lay.

The record followed here is US6683095B2, “CDK inhibitors having 3-hydroxychromen-4-one structure” (LG Life Sciences Ltd., priority 2000, dated 2004).

The target in series [1] is T1, CDK2/cyclin A (Homo sapiens, UniProt P24941).
T1 construct: His; made in house; host or cells: insect cell (baculovirus co-infection)
Put plainly: Inhibitory activity against CDK2 (CDK2/cyclin A kinase assay, GST-Rb substrate, 32P-ATP). As to conditions: 100 μM ATP, 30° C., 30 minutes. It counts as biochemical. As for the experimental part:
The inhibitory activity against CDK2 was measured by referring to Kitagawa, M. et al., Oncogene 9; 2549, 1994 and that against CDK4 was measured by referring to Carlson, B. A. et al., Cancer Research 56; 2473, 1996.
The part of amino acid positions 780 to 928 of C-terminus of human Rb protein was isolated, N-terminus thereof was labelled with GST protein, large amount thereof was expressed in bacteria and purified to be used as the substrate for the enzyme.
(§1) The activities of CDK2/cyclin A and CDK4/cyclin D1 were determined as follows. About 100 ng of enzyme was reacted in a total 100 μl of 20 mM Tris(pH 8.0), 100 mM NaCl, 10 mM MgCl2 buffer solution containing 20 μg of GST-Rb protein, 100 μM of ATP and 5 μCi of p^32-γ-ATP at 30° C. for 30 minutes. Then, EDTA was added to a concentration of 20 mM to stop the enzyme reaction. Subsequently, 30 μl of 50% glutathione bead (purchased from Pharmacia) was added to attach GST-Rb to the bead, which was washed three times with 20 mM Tris(pH 8.0), 100 mM NaCl, 10 mM EDTA solution, and then scintillation counting was carried out. To analyze the inhibitory activity of the compound, the inhibitor having a proper concentration was added to the enzyme reaction solution, and then the enzyme activity was measured according to the above method.
The inhibitory activity against CDK2 and CDK4 of the compound of formula (1) according to the present invention was represented as IC50 value (see the following Table 1).

Series [2] can be described thus: Acute oral toxicity test. As to conditions: mouse, in vivo; oral administration, ICR male, observed 7 days, Litchfield-Wilcoxon method. As for the experimental part:
To determine the acute oral toxicities of the test compounds, solutions containing a compound in different concentrations from each other were administered orally to ICR male with a dose of 10 ml/kg body weight. After oral administration, lethality and symptoms for 7 days were observed, and LD50 (mg/kg) was calculated according to Litchfield-Wilcoxon method.

For series [3], the target named is T2, CDK4/cyclin D1 (Homo sapiens, UniProt P11802).
T2 construct: GST; made in house; host or cells: insect cell
Put plainly: Inhibitory activity against CDK4 (CDK4/cyclin D1 kinase assay, GST-Rb substrate, 32P-ATP). The series is classed as biochemical. To be noted: 100 μM ATP, 30° C., 30 minutes. How it is done: as §1

T2 sequence (P11802 whole entry): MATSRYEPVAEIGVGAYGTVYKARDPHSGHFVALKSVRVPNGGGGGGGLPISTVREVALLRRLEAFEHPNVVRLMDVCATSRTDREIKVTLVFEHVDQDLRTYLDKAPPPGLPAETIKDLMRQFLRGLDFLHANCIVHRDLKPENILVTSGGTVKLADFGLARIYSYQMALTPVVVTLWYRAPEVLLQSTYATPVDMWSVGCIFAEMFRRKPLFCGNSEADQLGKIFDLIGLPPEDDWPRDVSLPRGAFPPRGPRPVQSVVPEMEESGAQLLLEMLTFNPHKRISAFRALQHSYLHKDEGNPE
T2 sequence (P24385 whole entry partner): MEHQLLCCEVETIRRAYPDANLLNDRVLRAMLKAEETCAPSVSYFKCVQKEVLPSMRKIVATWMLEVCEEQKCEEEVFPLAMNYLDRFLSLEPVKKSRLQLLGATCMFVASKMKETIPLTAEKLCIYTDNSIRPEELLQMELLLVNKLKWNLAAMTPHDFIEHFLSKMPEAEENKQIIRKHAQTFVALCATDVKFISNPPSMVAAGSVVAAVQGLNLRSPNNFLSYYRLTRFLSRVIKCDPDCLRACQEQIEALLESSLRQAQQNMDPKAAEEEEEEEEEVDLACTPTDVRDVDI

Broadly, the IC50 is the concentration needed to halve the response being measured. For orientation: LD50 means the dose expected to kill half of the subjects tested. Low readings indicate greater toxicity, high ones lower toxicity. Turning to `Cc1cc(N2CCCS2(=O)=O)c2oc(-c3ccc(O)cc3)c(O)c(=O)c2c1` [Compound 15, 2-[3-hydroxy-2-(4-hydroxyphenyl)-6-methyl-4-oxo-4H-chromen-8-yl]-1λ^6-isothiazolidin-1,1-dione], the IC50 in series [1] was 250 nM; in series [3] it was 550 nM. The LD50 at 7 days in series [2] was > 3000 mg/kg.

Regarding `Cc1cc(C2CCN(C)CC2)c2oc(-c3ccc(O)c(Cl)c3)c(O)c(=O)c2c1` [Compound 38, 2-(3-chloro-4-hydroxyphenyl)-3-hydroxy-6-methyl-8-(1-methyl-4-piperidinyl)-4H-chromen-4-one], the IC50 in series [1] was found to be 500 nM; in series [3], 120 nM. Moreover, the LD50 at 7 days in series [2] is > 3000 mg/kg.

For `Cc1cc(-c2cc[n+](C)cc2)c2oc(-c3ccc(O)c(Cl)c3)c(O)c(=O)c2c1` [Compound 40, 4-[2-(3-chloro-4-hydroxyphenyl)-3-hydroxy-6-methyl-4-oxo-4H-chromen-8-yl]-1-methylpyridinium bromide], the IC50 is 700 nM in series [1] and 310 nM in series [3]. The LD50 at 7 days in series [2] is > 3000 mg/kg.

As to `CN(C)c1cc(N2CCCS2(=O)=O)c2oc(-c3ccc(O)c(Cl)c3)c(O)c(=O)c2c1` [Compound 36, 2-[2-(3-chloro-4-hydroxyphenyl)-6-(dimethylamino)-3-hydroxy-4-oxo-4H-chromen-8-yl]-1λ^6-isothiazolidin-1,1-dione], the IC50 in series [1] was 500 nM; in series [3], 600 nM. Moreover, in series [2], the LD50 at 7 days was > 3000 mg/kg.
